Measured values taken from US9345776B2, “Biodegradable polymers with sulfenamide bonds for drug delivery applications” (The University of Iowa Research Foundation, priority 2011, dated 2016).

Assays:
[1] = pH=7.5, 37° C.; cited from earlier work
[2] = Degradation of molecule C with acid in CD3OD, monitored by 1H NMR; format: physicochemical
Protocol: […] Molecule C (103.5 mg, 436 μmol) was dissolved in 0.94 mL of CD3OD and 0.5 mL (55.1 mg, 232 μmol) was transferred to a NMR tube. […] […] This reaction was too rapid to monitor the kinetics.

[3] = Degradation of molecule C under neutral conditions, monitored by 1H NMR; format: physicochemical
Protocol: Kinetics of the degradation of molecule C under neutral conditions (FIG. 2a). Molecule C (363.2 mg, 1.53 mmol) was dissolved in 3.3 mL of CD3OD, from which 0.5 mL (55.1 mg, 232 μmol) was transferred to a NMR tube. After adding an additional 0.5 mL of CD3OD, ^1H NMR spectra were recorded at room temperature every few days. After 33 days, 15% of molecule C degraded to yield N-benzylmethylamine.
This procedure was also followed but the NMR tube was added to a heat bath at 40° C.
For the kinetics in C6D6 at room temperature, a solution of molecule C (33.9 mg, 143 μmol) in 0.7 mL of C6D6 was added to a NMR tube and ^1H NMR spectra were recorded every few days for 30 days.

Solubility in D2O = format: physicochemical
pKa = format: physicochemical; conditions: inferred from partial protonation by benzoic acid in CD3OD

In the case of `C=CCS[S+]([O-])CC=C` (stereo not shown) [allicin], the “half-life of the decomposition” value [1] is given as “approximately 2 days”.
With `CCCCCCSNCCc1ccccc1` [Molecule C, N-Benzylmethyl-hexanesulfenamide] the “degradation of molecule C” value ([2]; five equivalents of benzoic acid, 4 min) was 51%, the “degradation of molecule C” value ([2]; two molar equivalents of p-toluenesulfonic acid, within four minutes) was over 90% and the “degradation of molecule C” value ([2]; two molar equivalents of trifluoroacetic acid, within four minutes) was over 90%. For the same compound, the “1H NMR spectrum of molecule C (stability in aprotic solvent)” value ([3]; C6D6, after 30 days) was “unchanged”, the “degradation of molecule C” value ([3]; C6D6, room temperature, 30 days) was under 3% and the “degradation of molecule C” value ([3]; CD3OD, 40° C., 33 days) was 27%. The “degradation of molecule C” value ([3]; CD3OD, room temperature, 33 days, no acid) was 15%, the “solubility in D2O” value (Solubility in D2O) was “not soluble” and the “pKa of the protonated sulfenamide” value (pKa) was “approximately the same pKa as benzoic acid”.
